Measurements: patent US20080032896A1, “Methods for identifying compounds that bind to a target” (priority 1995, published 2008)

Experiments:
[1] = test system: anti-FGF monoclonal antibody; test: FGF binding assay: inhibition of radiolabeled FGF binding to biotinylated anti-FGF antibody; design: species or system mouse
Procedure: FIG. 1 is a graph depicting the ability of compounds PPI-432, PPI-652 and PPI-654 to inhibit the binding of radiolabeled FGF to an anti-FGF antibody.
The activities of the libraries were tested using an FGF binding assay. […] Since Libraries I and II are highly diverse, the active non-peptide compounds should have a spectrum of potencies which cumulatively yield the average potency seen in the library.
The eluted non-peptide compounds were brought to dryness under vacuum. Recovered non-peptide compounds were dissolved in 50 μl water and tested for their ability to block the interaction of bFGF with the target protein. (Assuming 100% recovery of non-peptide compounds and 100% binding to bivalent antibody, the amount of recovered non-peptide compounds was calculated to be 200 ng).
Several of the non-peptide compounds selected from the combinatorial library were made synthetically and compared to the starting peptide (PPI-432) for their ability to bind to the target protein. The compounds were synthesized with an amino-terminal acetyl group and a carboxy-terminal amide. The potency of two non-peptide compounds (PPI-652 and PPI-654, shown in Table 2), containing modified amino acids at positions 5 and 7, were compared to the starting peptide PPI-432 in their ability to inhibit radiolabeled FGF binding to biotinylated anti-FGF antibody. […]

[2] = test system: monoclonal antibody to bFGF; test: Competitive binding: blocking of phage binding to the anti-bFGF antibody; design: species or system mouse; settings: phage containing the sequence P-R-G-H-W-K-Q (SEQ ID NO: 9); competitive binding experiments
Procedure: A monoclonal antibody raised against human basic FGF (bFGF) was used as a biopanning target using a 7-mer peptide library in a bacteriophage M13 vector. To prepare the biopanning plates, four wells of an Immulon4 microtiter plate (Dynatech) were coated with stepavidin (1 μg/well) in 100 mM NaHCO3, pH 9.5, for 2 hours at room temperature or overnight at 4° C. The strepavidin-coated wells were washed three times with phosphate-buffered saline (PBS). To each well containing strepavidin, biotinylated rat anti mouse antibody K light chain (PharMingen) was added, at 1 μg/well, in PBS for 30 minutes to 1 hour at room temperature. The wells were then washed again with PBS three times. Non-specific binding sites were blocked with 300 μl/well PBS, 1% dry milk for 1 hour at room temperature. The wells were then washed with PBS, 0.1% dry milk three times, loaded with 50 μl/well PBS, 0.1% dry milk and stored at 4° C. […]
After the 2 hour room temperature incubation of the phage with the antibody, the PBS, 0.1% milk buffer was removed from the wells of the strepavidin/biotinylated α-mouse complex plates and the corresponding 100 μl of each tube containing the antibody/phage mixture was added to each of the four wells. […] The phage eluant was titered and the fractional yield determined. […]

Substance	blocking of the binding of bFGF to the antibody [1]	blocking of phage binding to the antibody [2]
G-A-F-P-P-G-H-F-K-D-P-D-R-L (GAFPPGHFKDPDRL) [PPI-416]	blocked	blocked
P-P-G-H-F-K-D (PPGHFKD) [PPI-432]	blocked	
